Source: patent publication US7795208B2, “Methods of using deacetylase inhibitors to promote cell differentiation and regeneration” (The Salk Institute for Biological Study, priority 2001, dated 2010)

Legend:
Type in all cases: cell-based, mouse
cyclinA-luc = assay: Integrated cyclinA-luc reporter in stable C2C12 clone; conditions: TSA treatment in GM
Method: FIGS. 2A-D are graphs showing DI activation muscle-specific transcription in skeletal muscle cells. […] Luciferase activity was measured in non-treated cells cultured in either GM (GM) or DM (DM). Alternatively, C2C12 were exposed to sodium butyrate for 24 hours in GM and then switched to DM without sodium butyrate (Butyr/GM>DM) or treated with sodium butyrate when cultured in DM (Butyr/DM) before being analyzed for luciferase activity. […] Luciferase assays were performed after culturing the cells for 48 hours in DM without sodium butyrate. […] The reporter activity was also analyzed in cells differentiated in the absence of TSA (DM)
Mouse muscle myoblast C2C12 cells (obtained from the American Type Culture Collection, ATCC CRL-1772) and CC42 cells (from Dr. Kenneth Walsh, Tufts University School of Medicine) were cultured in DMEM supplemented with 20% fetal bovine serum, 2 mM glutamine and 1× kanamycin (growth medium, GM). Cellular differentiation was induced with DMEM supplemented with 2% horse serum and 1× insulin, transferring, selenium (Life Technologies). Human skeletal myocytes (CC-2561) were purchased from Clonetics. […] Following transfections, luciferase activity was determined using the Dual-Luciferase reporter assay system (Promega) on a microtiter luminescence detection system (MLX, Dynex). […]

MyoD = assay: In vivo acetylation assay (3H-acetate incorporation); conditions: myoblasts cultured in GM
Method: In FIG. 3A, MyoD acetylation in undifferentiated C2C12 myoblasts (GM) untreated (−) or treated with either sodium butyrate (Butyr.) or TSA and in differentiated myotubes (abbrev. DM in FIG. 3A, but not to be confused with the abbreviation for “differentiation medium” as used elsewhere herein) was measured by ^3H incorporation of exogenously transfected Flag-tagged MyoD following metabolic labeling with ^3H sodium acetate as described in Sartorelli, V., et al., Molecular Cell 4:725-34 (1999). […] Chromatin was immunoprecipitated with antibodies against acetyl-histone 4 (AcH4) or IgG (as a control). Purified DNA from anti-AcH4 immunoprecipitated chromatin was analyzed by PCR using primers recognizing GAPDH promoter and MCK enhancer as described in Example 1. Unbound DNA (lanes 2 and 3, top panel) is an aliquot of chromatin not immunoprecipitated by anti-AcH4 antibody and amplified with GAPDH primers. Input (lanes 2 and 3, bottom panel) is an aliquot (1%) of the chromatin analyzed before the immunoprecipitation to quantify the amount of DNA present in different samples. […] Myoblasts were then formaldehyde cross-linked and processed.
In vivo acetylation assay was performed as described in Sartorelli, V., et al., Molecular Cell 4:725-34 (1999).
The acetylation of MyoD by ^3H-acetate incorporation in myoblasts, cultured in either the absence or presence of TSA, was evaluated. […]

[1] = tested on: histones of the MCK enhancer; assay: Chromatin immunoprecipitation with anti-acetyl-histone H4; conditions: myoblasts exposed to TSA in GM 16 hours, then DM 24 hours
Method: In FIG. 3A, MyoD acetylation in undifferentiated C2C12 myoblasts (GM) untreated (−) or treated with either sodium butyrate (Butyr.) or TSA and in differentiated myotubes (abbrev. DM in FIG. 3A, but not to be confused with the abbreviation for “differentiation medium” as used elsewhere herein) was measured by ^3H incorporation of exogenously transfected Flag-tagged MyoD following metabolic labeling with ^3H sodium acetate as described in Sartorelli, V., et al., Molecular Cell 4:725-34 (1999). […] Chromatin was immunoprecipitated with antibodies against acetyl-histone 4 (AcH4) or IgG (as a control). Purified DNA from anti-AcH4 immunoprecipitated chromatin was analyzed by PCR using primers recognizing GAPDH promoter and MCK enhancer as described in Example 1. Unbound DNA (lanes 2 and 3, top panel) is an aliquot of chromatin not immunoprecipitated by anti-AcH4 antibody and amplified with GAPDH primers. Input (lanes 2 and 3, bottom panel) is an aliquot (1%) of the chromatin analyzed before the immunoprecipitation to quantify the amount of DNA present in different samples. […] Myoblasts were then formaldehyde cross-linked and processed. […]
The MCK primers amplify nucleotides −1229 to −1007 of the MCK enhancer, while the GAPDH primers amplify nucleotides −1030 to −721. The PCR products were analyzed on 6% non-denaturing polyacrylamide gels. […]

CC(/C=C/C(=O)NO)=C\[C@@H](C)C(=O)c1ccc(N(C)C)cc1 [TSA, trichostatin A]
serum-dependent transcription of integrated cyclinA-luc (cyclinA-luc): not stimulated | incorporation of 3H-acetate into transfected MyoD (MyoD): stimulated the incorporation | histone H4 acetylation of the MCK enhancer (ChIP) [1]: histone hyperacetylation of the MCK enhancer
